The target in assay [1] is T1, hMC4-R (Homo sapiens (Human), UniProt P32245). Put plainly: High and low density hMC4-R functional assay (cAMP, HEK293-T-REx-MC4-R cells). The format is cell-based. The settings on record: for Emax: NDP-α-MSH = 100%, read-out: Intrinsic Activity (%). The procedure: The cells were then dispensed into 96-well plates (BD 353916) in 198 μL (about 5×10^4) cells/well and incubated for 10 minutes at 37° C. The compound to be tested was diluted with DMSO to a final concentration of 1 mM. […] 120 μL of the 1 mM compound stock was pipetted in the second column on the plate. […] All assay samples were run in duplicate (i.e. each sample was in two low dox and two high dox plates, respectively). The plates were gently shaken and incubated for 15 minutes at 37° C.
T1 sequence (P32245 whole entry): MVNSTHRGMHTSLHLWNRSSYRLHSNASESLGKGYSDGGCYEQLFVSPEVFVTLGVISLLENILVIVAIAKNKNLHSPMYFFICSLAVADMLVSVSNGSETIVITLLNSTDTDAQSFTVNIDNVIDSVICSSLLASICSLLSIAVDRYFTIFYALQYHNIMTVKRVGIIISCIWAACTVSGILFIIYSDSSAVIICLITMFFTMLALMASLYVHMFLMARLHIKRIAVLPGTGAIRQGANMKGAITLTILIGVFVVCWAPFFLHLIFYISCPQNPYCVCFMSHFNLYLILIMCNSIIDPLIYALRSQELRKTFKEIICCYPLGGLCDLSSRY

Assay [2] has as its target T1, hMC4-R. The experiment in a line: Competitive inhibition binding assay using [I125]-NDP-α-MSH, hMC4-R. The settings on record: membranes of HEK-293 cells expressing recombinant hMC4-R, read-out: MC4-R Ki. The procedure: 7.1 Competitive Inhibition Assay using [I^125]-NDP-α-MSH.
A competitive inhibition binding assay was performed for exemplified peptides according to the invention using membrane homogenates prepared from HEK-293 cells that express recombinant hMC4-R, hMC3-R, or hMC5-R, and from B-16 mouse melanoma cells (containing endogenous MC1-R). In some instances, HEK-293 cells that express recombinant hMC1-R were employed. Assays were performed in 96 well GF/B Millipore multiscreen filtration plates (MAFB NOB10) pre-coated with 0.5% bovine serum albumin (Fraction V). Membrane homogenates were incubated with 0.2 nM (for hMC4-R) 0.4 nM (for MC3-R and MC5-R) or 0.1 nM (for mouse B16 MC1-R or hMC1-R) [I^125]-NDP-α-MSH (Perkin Elmer) and increasing concentrations of test peptides of the present invention in buffer containing 25 mM HEPES buffer (pH 7.5) with 100 mM NaCl, 2 mM CaCl2, 2 mM MgCl2, 0.3 mM 1,10-phenanthroline, and 0.2% bovine serum albumin. After incubation for 60 minutes at 37° C., the assay mixture was filtered and the membranes washed three times with ice-cold buffer. Filters were dried and counted in a gamma counter for bound radioactivity. […] Maximal specific binding (100%) was defined as the difference in radioactivity (cpm) bound to cell membranes in the absence and presence of 1 μM NDP-α-MSH. […] Each assay was conducted in triplicate and the actual mean values are described, with results less than 0% reported as 0%. Ki values for test peptides of the present invention were determined using Graph-Pad Prism® curve-fitting software.

[3] abbreviates: 0.1 ng/mL Doxycycline (low density hMC4-R system).
The mark [4] stands for this setting: 10 ng/mL Doxycycline (high density hMC4-R system).

Where two headings read alike, the source gives them in different places. Positions of bridges follow the written chain, without caps; N, C: chain ends. Non-standard residues stand in square brackets, D forms with d. Residues, ends and D or L forms follow the SMILES beside them. dPhe(4-CN) = N#Cc1ccc(C[C@@H](N)C(=O)O)cc1

In patent US9040663B2, “Melanocortin receptor-specific peptides” (AstraZeneca AB, priority 2009, dated 2015) one finds EC50, Emax and Ki data, which are given here for 14 compounds.

Turning to `CC(=O)N[C@@H](CCCNC(=N)N)C(=O)N[C@H]1CCC(=O)NCCC[C@@H](C(N)=O)NC(=O)[C@H](Cc2c[nH]c3ccccc23)NC(=O)[C@H](CCCNC(=N)N)NC(=O)[C@@H](Cc2ccccc2F)NC(=O)[C@H](CCC(N)=O)NC1=O` [Example 59, Ac-Arg-cyclo(Glu-Gln-D-Phe(2-F)-Arg-Trp-Orn)-NH2], at hMC4-R [1] (setting [3]), the EC50 was determined as 0.6 nM and the Emax stood at 90%. Besides, on hMC4-R [1] (setting [4]), the EC50 came to 0.1 nM and the Emax was found to be 98%. Further, the Ki at hMC4-R [2] was found to be 7 nM.

On to `CC(=O)N[C@@H](CCCNC(=N)N)C(=O)N[C@H]1CCC(=O)NCCC[C@@H](C(N)=O)NC(=O)[C@H](Cc2c[nH]c3ccccc23)NC(=O)[C@H](CCCNC(=N)N)NC(=O)[C@@H](Cc2cccc(Cl)c2)NC(=O)[C@H](CN)NC1=O` [Example 61, Ac-Arg-cyclo(Glu-Dap-D-Phe(3-Cl)-Arg-Trp-Orn)-NH2], for which, on hMC4-R [1] (setting [3]), the Emax was determined as 6%. At hMC4-R [1] (setting [4]), the EC50 was 0.95 nM and the Emax turned out to be 89%. Also, the Ki at hMC4-R [2] stood at 4 nM.

Take `CC(=O)N[C@@H](CCCNC(=N)N)C(=O)N[C@H]1CCC(=O)NCCC[C@@H](C(N)=O)NC(=O)[C@H](Cc2c[nH]c3ccccc23)NC(=O)[C@H](CCCNC(=N)N)NC(=O)[C@@H](Cc2ccccc2Cl)NC(=O)[C@H](CN)NC1=O` [Example 62, Ac-Arg-cyclo(Glu-Dap-D-Phe(2-Cl)-Arg-Trp-Orn)-NH2]: on hMC4-R [1] (setting [3]), the response was half-maximal at 16 nM (EC50) and the Emax was determined as 23%. Moreover, on hMC4-R [1] (setting [4]), the EC50 came to 0.47 nM and the Emax stood at 84%. Moreover, the Ki at hMC4-R [2] was found to be 9 nM.

With `CC(=O)N[C@@H](CCCNC(=N)N)C(=O)N[C@H]1CCCNC(=O)CC[C@@H](C(N)=O)NC(=O)[C@H](Cc2c[nH]c3ccccc23)NC(=O)[C@H](CCCNC(=N)N)NC(=O)[C@@H](Cc2ccc(F)cc2)NC(=O)[C@H](CC(N)=O)NC1=O` [Example 70, Ac-Arg-cyclo(Orn-Asn-D-Phe(4-F)-Arg-Trp-Glu)-NH2], on hMC4-R [1] (setting [3]), the EC50 turned out to be 0.4 nM and the Emax turned out to be 64%. Moreover, on hMC4-R [1] (setting [4]), a half-maximal response (EC50) required 0.1 nM and the Emax was 91%. Besides, the Ki on hMC4-R [2] was 3 nM.

Turning to `CC(=O)N[C@@H](CCCNC(=N)N)C(=O)N[C@H]1CCCNC(=O)CC[C@@H](C(N)=O)NC(=O)[C@H](Cc2c[nH]c3ccccc23)NC(=O)[C@H](CCCNC(=N)N)NC(=O)[C@@H](Cc2cccc(C)c2)NC(=O)[C@H](CC(N)=O)NC1=O` [Example 72, Ac-Arg-cyclo(Orn-Asn-D-Phe(3-Me)-Arg-Trp-Glu)-NH2], on hMC4-R [1] (setting [3]), the EC50 worked out at 3 nM and the Emax turned out to be 11%. On hMC4-R [1] (setting [4]), it took 0.35 nM to reach a half-maximal effect (EC50) and the Emax worked out at 84%. In addition, the Ki on hMC4-R [2] was 4 nM.

On to `CC(=O)N[C@@H](CCCNC(=N)N)C(=O)N[C@H]1CCC(=O)NCCC[C@@H](C(N)=O)NC(=O)[C@H](Cc2c[nH]c3ccccc23)NC(=O)[C@H](CCCNC(=N)N)NC(=O)[C@@H](Cc2ccccc2C)NC(=O)[C@H](CC(N)=O)NC1=O` [Example 73, Ac-Arg-cyclo(Glu-Asn-D-Phe(2-Me)-Arg-Trp-Orn)-NH2], for which the figures for the Emax at hMC4-R [1] (setting [3]) and at hMC4-R [1] (setting [4]) were 86% and 102%, respectively. In addition, the Ki at hMC4-R [2] amounted to 4 nM.

On to `CC(=O)N[C@@H](CCCNC(=N)N)C(=O)N[C@H]1CCCNC(=O)CC[C@@H](C(N)=O)NC(=O)[C@H](Cc2c[nH]c3ccccc23)NC(=O)[C@H](CCCNC(=N)N)NC(=O)[C@@H](Cc2cc(F)cc(F)c2)NC(=O)[C@H](CC(N)=O)NC1=O` [Example 77, Ac-Arg-cyclo(Orn-Asn-D-Phe(3,5-diF)-Arg-Trp-Glu)-NH2], for which, on hMC4-R [1] (setting [3]), the response was half-maximal at 3 nM (EC50) and the Emax worked out at 34%. Further, the Emax on hMC4-R [1] (setting [4]) came out at 80%. Besides, the inhibition constant (Ki) at hMC4-R [2] was 8 nM.

For the compound `CC(=O)N[C@H](CCCNC(=N)N)C(=O)N[C@H]1CC(=O)NCCCC[C@@H](C(N)=O)NC(=O)[C@H](Cc2c[nH]c3ccccc23)NC(=O)[C@H](CCCNC(=N)N)NC(=O)[C@@H](Cc2ccc(F)c(F)c2)NC(=O)[C@H](CCC(N)=O)NC1=O` [Example 78, Ac-D-Arg-cyclo(Asp-Gln-D-Phe(3,4-diF)-Arg-Trp-Lys)-NH2], the EC50 amounted to 2 nM on hMC4-R [1] (setting [3]) and 0.2 nM at hMC4-R [1] (setting [4]). Further, the Emax amounted to 48% on hMC4-R [1] (setting [3]) and 89% at hMC4-R [1] (setting [4]). The Ki at hMC4-R [2] came out at 8 nM.

On to `CC(=O)N[C@H](CCCNC(=N)N)C(=O)N[C@H]1CC(=O)NCCCC[C@@H](C(N)=O)NC(=O)[C@H](Cc2c[nH]c3ccccc23)NC(=O)[C@H](CCCNC(=N)N)NC(=O)[C@@H](Cc2ccccc2F)NC(=O)[C@H](CCC(N)=O)NC1=O` [Example 82, Ac-D-Arg-cyclo(Asp-Gln-D-Phe(2-F)-Arg-Trp-Lys)-NH2], for which the EC50 on hMC4-R [1] (setting [3]) stood at 2 nM; at hMC4-R [1] (setting [4]), 0.095 nM. The Emax on hMC4-R [1] (setting [3]) was 79%; on hMC4-R [1] (setting [4]) it was 95%. For the same compound, on hMC4-R [2], the Ki was determined as 10 nM.

As for `CC(=O)N[C@H](CCCNC(=N)N)C(=O)N[C@H]1CC(=O)NCCCC[C@@H](C(N)=O)NC(=O)[C@H](Cc2c[nH]c3ccccc23)NC(=O)[C@H](CCCNC(=N)N)NC(=O)[C@@H](Cc2ccc(F)cc2)NC(=O)[C@H](CCC(N)=O)NC1=O` [Example 83, Ac-D-Arg-cyclo(Asp-Gln-D-Phe(4-F)-Arg-Trp-Lys)-NH2], the concentration for a half-maximal effect (EC50) on hMC4-R [1] (setting [3]) came out at 0.75 nM; on hMC4-R [1] (setting [4]), 0.075 nM. For the same compound, the Emax on hMC4-R [1] (setting [3]) is 78%; at hMC4-R [1] (setting [4]), 94%. For the same compound, the inhibitory constant (Ki) on hMC4-R [2] was determined as 6 nM.

Regarding `COc1cccc(C[C@H]2NC(=O)[C@H](CCN)NC(=O)[C@@H](NC(=O)[C@H](CCCNC(=N)N)NC(C)=O)CCC(=O)NCCC[C@@H](C(N)=O)NC(=O)[C@H](Cc3c[nH]c4ccccc34)NC(=O)[C@H](CCCNC(=N)N)NC2=O)c1` [Example 87, Ac-Arg-cyclo(Glu-Dab-D-Phe(3-OMe)-Arg-Trp-Orn)-NH2], the EC50 was found to be 1 nM on hMC4-R [1] (setting [3]) and 0.065 nM on hMC4-R [1] (setting [4]). In addition, the results for the Emax at hMC4-R [1] (setting [3]) and at hMC4-R [1] (setting [4]) were 64% and 100%, respectively. The Ki at hMC4-R [2] was 3 nM.

For the compound `CC(=O)N[C@@H](CCCNC(=N)N)C(=O)N[C@H]1CCC(=O)NCCC[C@@H](C(N)=O)NC(=O)[C@H](Cc2c[nH]c3ccccc23)NC(=O)[C@H](CCCNC(=N)N)NC(=O)[C@@H](Cc2ccccc2Cl)NC(=O)[C@@H]2CCCN2C1=O` [Example 88, Ac-Arg-cyclo(Glu-Pro-D-Phe(2-Cl)-Arg-Trp-Orn)-NH2], on hMC4-R [1] (setting [3]), the EC50 worked out at 3 nM and the Emax is 15%. Besides, at hMC4-R [1] (setting [4]), the 50% effective concentration (EC50) is 0.35 nM and the Emax was determined as 89%. Moreover, the Ki on hMC4-R [2] amounted to 5 nM.

In the case of `CC(=O)N[C@@H](CCCNC(=N)N)C(=O)N[C@H]1CC(=O)NCCCC[C@@H](C(N)=O)NC(=O)[C@H](Cc2c[nH]c3ccccc23)NC(=O)[C@H](CCCNC(=N)N)NC(=O)[C@@H](Cc2ccc(C#N)cc2)NC(=O)[C@H](CC(N)=O)NC1=O` [Example 89, Ac-Arg-cyclo(Asp-Asn-D-Phe(4-CN)-Arg-Trp-Lys)-NH2] (Ac-RDN[dPhe(4-CN)]RWK-NH2; lactam 2-7), the figures for the Emax at hMC4-R [1] (setting [3]) and at hMC4-R [1] (setting [4]) were 6% and 87%, respectively. For the same compound, at hMC4-R [2], the Ki amounted to 48 nM.

Consider `CC(=O)N[C@@H](CCCNC(=N)N)C(=O)N[C@H]1CC(=O)NCCCC[C@@H](C(N)=O)NC(=O)[C@H](Cc2c[nH]c3ccccc23)NC(=O)[C@H](CCCNC(=N)N)NC(=O)[C@@H](Cc2ccc(C#N)cc2)NC(=O)[C@H](CCC(N)=O)NC1=O` [Example 90, Ac-Arg-cyclo(Asp-Gln-D-Phe(4-CN)-Arg-Trp-Lys)-NH2], for which, at hMC4-R [1] (setting [3]), the EC50 is 4 nM and the Emax was 31%. Also, at hMC4-R [1] (setting [4]), the Emax was found to be 96%. In addition, the Ki on hMC4-R [2] is 5 nM.
